Data on 8 molecules can be found in patent US20010034887A1, “Transformation of guar” (priority 1994, published 2001).

Counter-ions that a name gives are not always drawn.

The subject of the assay is guar explants. Description: Agrobacterium-mediated transformation of guar cotyledon explants: selection, shoot harvest and GUS test. The class given is cell-based, Cyamopsis tetragonoloba. As to the method:
Cotyledons with about 2 mm of hypocotyl were excised from 12 day old seedlings. The cotyledons were then torn apart using a tweezers to create wound surfaces and placed in the Agrobacterium-suspension for 30 min.
Co-cultivation proceeded for 3 days at 25° C. and a 12 h/12 h day/night regime. After co-culture the explants were washed with 1/10 MS-medium, to which 100 mg/l carbenicillin, 100 mg/l cefotaxime and 1000 mg/l lysozyme had been added, 2-3 times for 45 min. while stirring at 100 rpm.
The explants were transferred to selection medium and incubated as above (25° C., 12 h day/12 h night).
After 4 weeks, shoots larger than 3 mm were harvested and transferred to shoot medium. After 10-14 days the shoots were tested for activity of the reporter gene β-glucuronidase (GUS), see below. GUS-positive shoots were transferred to fresh shoot medium while the GUS-negative shoots were discarded.
After the first harvest, explants (from which shoots had been harvested) were transferred to a second selection medium with a lower kanamycin concentration (50 mg/l) . After another 4 weeks shoots were harvested and GUS-tested. The positive shoots were transferred to fresh medium, while the negatives were discarded.
Tips of young leaves were excised and transferred to a multi-dish well containing 200 μl X-gluc solution. After incubation for 16 h at 35° C. the leaf tips were destained with 96% ethanol and the degree of blue stain was determined under a microscope.

Where [1] appears, read: kanamycin sulfate 125 mg/l in selection medium, 1600 explants, strain EHA 101.
[2] abbreviates: kanamycin sulfate 135 mg/l in selection medium, 1600 explants, strain EHA 101.
Setting [3] is: kanamycin sulfate 145 mg/l in selection medium, 1600 explants, strain EHA 101.
The mark [4] stands for this setting: 0.1-2 mg/l PCIB during selection.
The mark [5] stands for this setting: thidiazuron 0.3 mg/l, 742 explants.
Setting [6] is: thidiazuron 1.0 mg/l, 741 explants.
[7] abbreviates: thidiazuron 3.0 mg/l, 1522 explants.
[8] abbreviates: thidiazuron 4.5 mg/l, 797 explants.

In the case of `CC1(C)S[C@@H]2[C@H](NC(=O)C(C(=O)O)c3ccccc3)C(=O)N2[C@H]1C(=O)O` (some centres unmarked) [Carbenicil., carbenicillin], the “No. of GUS+ shoots” value (carbenicillin 800 mg/l, cefotaxime 0, sulbactam 0, 800 explants, EHA 101) came out at 2.
Where the note is “100 mg/l kanamycin or less”, `NC[C@H]1O[C@H](O[C@H]2[C@H](O)[C@@H](O[C@H]3O[C@H](CO)[C@@H](O)[C@H](N)[C@H]3O)[C@H](N)C[C@@H]2N)[C@H](O)[C@@H](O)[C@@H]1O` [Kanamycin sulf., kanamycin sulfate] showed a regeneration frequencies of about 100%. The “No. of GUS+ shoots” value under setting [1] was determined as 3, the “No. of GUS+ shoots” value under setting [2] is 5 and the “No. of GUS+ shoots” value under setting [3] was determined as 8. Also, the “No. of regenerated shoots” value is, setting by setting: under setting [1], 21; under setting [2], 19; under setting [3], 15. The “transgenic shoots found at the second harvest” value (second harvest, kanamycin concentration reduced) is reported as “About 50%”. Moreover, the “optimal kanamycin sulfate concentration in the selection medium” value (selection medium) came out at 145 mg/L.
As for `O.O.O.O.O.O.[Cl][Ni][Cl]` [NiCl2, 6H2O], the “No. of GUS+ shoots” value is 4 (NiCl2, 6H2O 1.0 mg/l with BAP 1.0 mg/l, 1200 explants, EHA 101) and 4 (NiCl2, 6H2O 1.0 mg/l with BAP 5.0 mg/l, 1200 explants, EHA 101). For the same molecule, under “addition of 1 mg/l NiCl2, 6H2O”, the higher transformation frequency was 2-4 times.
On to `CC(C)(Oc1ccc(Cl)cc1)C(=O)O` [PCIB, 2-(p-chlorophenoxy)-2-methylpropionic acid], for which, under setting [4], the amount of callus is “reduced the amount of callus significantly”; the “regeneration and number of transgenic shoots” value was “enhanced regeneration and the number of transgenic shoots”.
Regarding `CC1(C)[C@H](C(=O)O)N2C(=O)C[C@H]2S1(=O)=O` [Sulbactam, sulbactam], the “No. of GUS+ shoots” value is, setting by setting: (sulbactam 100 mg/l with carbenicillin 50 mg/l and cefotaxime 50 mg/l, 800 explants, EHA 101) 9; (sulbactam 100 mg/l with carbenicillin 100 mg/l and cefotaxime 100 mg/l, 800 explants, EHA 101) 5.
As to `O=C(Nc1ccccc1)Nc1cnns1` [Thidiazuron, thidiazuron], the “subsequent cloning of the transgenic shoots” value is “beneficial for the subsequent cloning of the transgenic shoots”. Also, where the note is “TDZ 0.3-3.0 mg/l vs no TDZ”, the “increase of transformation frequencies” value was 1.5-1.8 fold. The “optimum TDZ concentrations in the selection media” value (selection media) was in the range of 0.3 to 3.0 mg/L. Under setting [5], the “No. of GUS+ shoots” value was 8 and the “Transform. freq. (%)” value came to 1.08%. Besides, under setting [6], the “No. of GUS+ shoots” value is listed as 9 and the “Transform. freq. (%)” value worked out at 1.21%. Further, under setting [7], the “No. of GUS+ shoots” value is on record as 16 and the “Transform. freq. (%)” value was determined as 1.05%. For the same molecule, under setting [8], the “No. of GUS+ shoots” value amounted to 5 and the “Transform. freq. (%)” value is given as 0.63%.
On to benzyladenine purine [BAP], for which the “total number of regenerated shoots on 5 mg/l BAP compared with 1 mg/l” value (5 mg/l vs 1 mg/l BAP in selection medium) was “about twice as high”. Besides, the “No. of GUS+ shoots” value is, setting by setting: (BAP 1.0 mg/l, NiCl2, 6H2O 0 mg/l, 1200 explants, EHA 101) 1; (BAP 5.0 mg/l, NiCl2, 6H2O 0 mg/l, 1200 explants, EHA 101) 2.
Take silver thiosulfate [STS]: the “No. of GUS+ shoots” value by setting is: (STS 2.5 μM, calculated per 1000 explants, EHA 101) 12; (STS 5.0 μM, calculated per 1000 explants, EHA 101) 8; (STS 10.0 μM, calculated per 1000 explants, EHA 101) 7. Under “presence of STS vs absence”, the shoot quality result is on record as “significantly improved shoot quality”.
